Source: US11638707B2, “Substituted amino triazoles useful as chitinase inhibitors” (Molecure S.A., priority 2019, dated 2023)
Structures can show the parent of a compound that is named as a salt.

Experiments:
recombinant human CHIT1 = recombinant human CHIT1 (Homo sapiens (Human), UniProt Q13231); assay: Human CHIT1 activity assay; assay type: biochemical; details: recombinant human CHIT1, citrate buffer pH 5.2, 37° C., 60 minutes; read-out: hCHIT1, IC50
Method in brief: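 Recombinant human CHIT1 hydrolysed 4-methylumbelliferyl β-D-N,N′,N″-triacetylchitotriose in citrate buffer, pH 5.2, for 60 minutes at 37° C in the dark with shaking. Released 4MU was read by fluorescence at 460 nm under basic pH; IC50 values were calculated from dilution series.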

hERG channel = hERG channel (Homo sapiens (Human), UniProt Q12809); assay: Human ERG channel binding assay (fluorescence polarization); details: Table 1; tracer displacement, 4 h at room temperature
Method in brief: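 Serially diluted compounds were incubated with a hERG-containing membrane fraction and a high-affinity red-shifted fluorescent hERG ligand. Displacement of the tracer was read by fluorescence polarization, and IC50 values were derived from the concentration-response curves.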

recombinant human AMCase = recombinant human AMCase (Homo sapiens (Human), UniProt Q9BZP6); assay: Human AMCase activity assay; assay type: biochemical; details: citrate buffer pH 5.2, 37° C., 60 minutes, read-out: hAMCase, IC50
Method in brief: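 Recombinant hAMCase hydrolysed 4-methylumbelliferyl β-D-N,N′-diacetylchitobioside in citrate buffer pH 5.2, run 60 min at 37 °C in the dark with shaking. Released 4MU fluorescence was read at 460 nm under basic pH, and IC50 values were fitted from the compound dilutions.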

recombinant human CHIT1, sequence (Q13231 22-466): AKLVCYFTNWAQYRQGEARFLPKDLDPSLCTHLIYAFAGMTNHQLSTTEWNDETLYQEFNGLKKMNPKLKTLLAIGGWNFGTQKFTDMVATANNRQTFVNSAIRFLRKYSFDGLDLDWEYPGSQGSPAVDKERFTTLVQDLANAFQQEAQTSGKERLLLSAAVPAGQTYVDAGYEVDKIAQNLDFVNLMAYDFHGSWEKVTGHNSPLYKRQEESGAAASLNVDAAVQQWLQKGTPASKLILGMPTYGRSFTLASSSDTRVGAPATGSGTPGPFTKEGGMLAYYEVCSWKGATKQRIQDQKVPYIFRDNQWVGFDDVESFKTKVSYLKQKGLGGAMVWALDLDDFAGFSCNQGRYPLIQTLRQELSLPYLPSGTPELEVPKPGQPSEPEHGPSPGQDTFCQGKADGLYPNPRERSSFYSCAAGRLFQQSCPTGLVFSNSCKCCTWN
hERG channel, sequence (Q12809 whole entry): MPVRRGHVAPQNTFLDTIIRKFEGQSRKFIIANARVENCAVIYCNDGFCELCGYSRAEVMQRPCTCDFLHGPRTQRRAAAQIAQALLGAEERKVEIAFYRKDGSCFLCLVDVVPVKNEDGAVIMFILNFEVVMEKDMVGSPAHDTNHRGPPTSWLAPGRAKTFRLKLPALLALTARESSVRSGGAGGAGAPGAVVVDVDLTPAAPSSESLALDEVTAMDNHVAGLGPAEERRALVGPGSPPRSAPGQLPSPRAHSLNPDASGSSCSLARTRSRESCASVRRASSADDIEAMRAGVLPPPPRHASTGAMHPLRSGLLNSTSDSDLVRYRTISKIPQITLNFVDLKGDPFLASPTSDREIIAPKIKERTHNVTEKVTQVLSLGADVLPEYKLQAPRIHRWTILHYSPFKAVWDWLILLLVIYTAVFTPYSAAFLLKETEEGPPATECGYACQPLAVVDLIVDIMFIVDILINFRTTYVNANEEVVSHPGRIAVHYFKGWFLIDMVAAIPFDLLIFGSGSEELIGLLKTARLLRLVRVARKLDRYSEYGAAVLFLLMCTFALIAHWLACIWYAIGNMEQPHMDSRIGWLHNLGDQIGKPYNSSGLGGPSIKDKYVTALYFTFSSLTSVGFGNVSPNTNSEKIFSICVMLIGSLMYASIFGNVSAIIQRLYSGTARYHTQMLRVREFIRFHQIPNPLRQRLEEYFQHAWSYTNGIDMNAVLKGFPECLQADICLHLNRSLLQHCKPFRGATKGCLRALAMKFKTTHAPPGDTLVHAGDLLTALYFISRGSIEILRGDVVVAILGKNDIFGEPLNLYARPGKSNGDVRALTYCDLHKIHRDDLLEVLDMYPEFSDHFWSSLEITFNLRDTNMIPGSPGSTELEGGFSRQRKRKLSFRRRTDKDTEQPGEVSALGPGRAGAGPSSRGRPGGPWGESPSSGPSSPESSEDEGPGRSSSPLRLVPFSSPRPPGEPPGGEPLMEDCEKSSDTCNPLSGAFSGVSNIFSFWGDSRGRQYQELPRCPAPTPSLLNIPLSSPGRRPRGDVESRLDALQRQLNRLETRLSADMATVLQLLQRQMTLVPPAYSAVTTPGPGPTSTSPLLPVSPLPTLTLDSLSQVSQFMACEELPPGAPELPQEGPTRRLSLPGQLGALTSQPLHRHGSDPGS
recombinant human AMCase, sequence (Q9BZP6 22-476): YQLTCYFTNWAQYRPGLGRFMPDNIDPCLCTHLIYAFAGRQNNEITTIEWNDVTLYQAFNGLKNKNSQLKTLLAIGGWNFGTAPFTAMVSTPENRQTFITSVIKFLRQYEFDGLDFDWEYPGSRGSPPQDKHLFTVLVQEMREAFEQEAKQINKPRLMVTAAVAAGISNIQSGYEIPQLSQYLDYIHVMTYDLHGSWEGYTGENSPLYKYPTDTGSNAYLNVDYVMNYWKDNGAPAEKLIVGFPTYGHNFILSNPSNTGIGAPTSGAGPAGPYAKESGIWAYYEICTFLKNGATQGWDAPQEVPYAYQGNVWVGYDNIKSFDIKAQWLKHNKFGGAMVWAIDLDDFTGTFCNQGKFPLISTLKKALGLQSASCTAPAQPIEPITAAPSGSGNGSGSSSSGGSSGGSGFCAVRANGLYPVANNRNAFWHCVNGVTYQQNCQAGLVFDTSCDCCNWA

| SMILES | IC50 (recombinant human CHIT1) [nM] | IC50 (hERG channel) [nM] | IC50 (recombinant human AMCase) [nM] |
| --- | --- | --- | --- |
| Nc1nnc(N2CCC(N3C[C@H](COCC(F)(F)F)OC[C@@H]3Cc3ccc(Cl)cc3)CC2)[nH]1 [Example 39, 5-(4-((2R,5S)-5-(4-chlorobenzyl)-2-((2,2,2-trifluoroethoxy)methyl)morpholino)-piperidin-1-yl)-4H-1,2,4-triazol-3-amine 2,2,2-trifluoroacetate] | < 100 | 1000 to 10000 | < 100 |
| CSC[C@H]1CN(C2CCN(c3nnc(N)[nH]3)CC2)[C@@H](Cc2ccc(Cl)cc2)CO1 [Example 41, 5-(4-((2R,5S)-5-(4-chlorobenzyl)-2-((methylthio)methyl)morpholino)piperidin-1-yl)-4H-1,2,4-triazol-3-amine dihydrochloride] | < 100 | 25000 to 100000 | < 100 |
| Nc1nnc(N2CCC(N3C[C@H](Cn4cc(Cl)cn4)OC[C@@H]3Cc3ccc(Cl)cc3)CC2)[nH]1 [Example 44, 5-(4-((2R,5S)-2-((4-chloro-1H-pyrazol-1-yl)methyl)-5-(4-chlorobenzyl)-morpholino)piperidin-1-yl)-4H-1,2,4-triazol-3-amine 2,2,2-trifluoroacetate] | < 100 | 1000 to 10000 | < 100 |
| CS(=O)(=O)CCNC(=O)[C@H]1CN(C2CCN(c3nnc(N)[nH]3)CC2)[C@@H](Cc2ccc(Cl)cc2)CO1 [Example 45, (2R,5S)-4-(1-(5-amino-4H-1,2,4-triazol-3-yl)piperidin-4-yl)-5-(4-chlorobenzyl)-N-(2-(methylsulfonyl)ethyl)morpholine-2-carboxamide 2,2,2-trifluoroacetate] | < 100 | > 100000 | < 100 |
| CNS(=O)(=O)CCNC(=O)[C@H]1CN(C2CCN(c3nnc(N)[nH]3)CC2)[C@@H](Cc2ccc(Cl)cc2)CO1 [Example 46, (2R,5S)-4-(1-(5-amino-4H-1,2,4-triazol-3-yl)piperidin-4-yl)-5-(4-chlorobenzyl)-N-(2-(N-methylsulfamoyl)ethyl)morpholine-2-carboxamide 2,2,2-trifluoroacetate] | < 100 | > 100000 | < 100 |
| Nc1nnc(N2CCC(N3C[C@H](Cn4ccnc4)OC[C@@H]3Cc3ccc(Cl)cc3)CC2)[nH]1 [Example 47, 5-(4-((2R,5S)-2-((1H-imidazol-1-yl)methyl)-5-(4-chlorobenzyl)morpholino)-piperidin-1-yl)-4H-1,2,4-triazol-3-amine 2,2,2-trifluoroacetate] | < 100 | 10000 to 25000 | < 100 |
| CN(C)C(=O)OC[C@H]1CN(C2CCN(c3nnc(N)[nH]3)CC2)[C@@H](Cc2ccc(Cl)cc2)CO1 [Example 48, ((2R,5S)-4-(1-(5-amino-4H-1,2,4-triazol-3-yl)piperidin-4-yl)-5-(4-chlorobenzyl)morpholin-2-yl)methyl dimethylcarbamate 2,2,2-trifluoroacetate] | < 100 | 25000 to 100000 | < 100 |
| Cc1coc([C@H]2CN(C3CCN(c4nnc(N)[nH]4)CC3)[C@@H](Cc3ccc(Cl)cc3)CO2)n1 [Example 49, 5-(4-((2R,5S)-5-(4-chlorobenzyl)-2-(4-methyloxazol-2-yl)morpholino)piperidin-1-yl)-4H-1,2,4-triazol-3-amine 2,2,2-trifluoroacetate] | < 100 | 10000 to 25000 | < 100 |
| Cc1nc([C@H]2CN(C3CCN(c4nnc(N)[nH]4)CC3)[C@@H](Cc3ccc(Cl)cc3)CO2)oc1C [Example 50, 5-(4-((2R,5S)-5-(4-chlorobenzyl)-2-(4,5-dimethyloxazol-2-yl)morpholino)piperidin-1-yl)-4H-1,2,4-triazol-3-amine 2,2,2-trifluoroacetate] | < 100 | 1000 to 10000 | < 100 |
| CC1CN(C[C@H]2CN(C3CCN(c4nnc(N)[nH]4)CC3)[C@@H](Cc3ccc(Cl)cc3)CO2)C1 [Example 51, 5-(4-((2S,5S)-5-(4-chlorobenzyl)-2-((3-methylazetidin-1-yl)methyl)morpholino)-piperidin-1-yl)-4H-1,2,4-triazol-3-amine 2,2,2-trifluoroacetate] | 100 to 1000 | 25000 to 100000 | < 100 |
| Nc1nnc(N2CCC(N3C[C@H](CN4CCCCC4)OC[C@@H]3Cc3ccc(Cl)cc3)CC2)[nH]1 [Example 52, 5-(4-((2S,5S)-5-(4-chlorobenzyl)-2-(piperidin-1-ylmethyl)morpholino)piperidin-1-yl)-4H-1,2,4-triazol-3-amine 2,2,2-trifluoroacetate] | 100 to 1000 | 25000 to 100000 | < 100 |
| Nc1nnc(N2CCC(N3C[C@H](C(=O)N4CCC(F)(F)CC4)OC[C@@H]3Cc3ccc(Cl)cc3)CC2)[nH]1 [Example 53, ((2R,5S)-4-(1-(5-amino-4H-1,2,4-triazol-3-yl)piperidin-4-yl)-5-(4-chlorobenzyl)-morpholin-2-yl)(4,4-difluoropiperidin-1-yl)methanone 2,2,2-trifluoroacetate] | 100 to 1000 | 25000 to 100000 | < 100 |
| Nc1nnc(N2CCC(N3C[C@H](C(=O)N4CCC(F)(F)C4)OC[C@@H]3Cc3ccc(Cl)cc3)CC2)[nH]1 [Example 54, ((2R,5S)-4-(1-(5-amino-4H-1,2,4-triazol-3-yl)piperidin-4-yl)-5-(4-chlorobenzyl)-morpholin-2-yl)(3,3-difluoropyrrolidin-1-yl)methanone 2,2,2-trifluoroacetate] | 100 to 1000 | > 100000 | < 100 |
| Nc1nnc(N2CCC(N3C[C@H](N4CCOCC4)C[C@@H]3Cc3ccc(Cl)cc3)CC2)[nH]1 [Example 55, 5-(4-((2S,4R)-2-(4-chlorobenzyl)-4-morpholinopyrrolidin-1-yl)piperidin-1-yl)-4H-1,2,4-triazol-3-amine 2,2,2-trifluoroacetate] | < 100 | 25000 to 100000 | < 100 |
| Nc1nnc(N2CCC(N3CC(F)(F)CC[C@@H]3Cc3ccc(Cl)cc3)CC2)[nH]1 [Example 57, (R)-5-(2-(4-chlorobenzyl)-5,5-difluoro-[1,4′-bipiperidin]-1′-yl)-4H-1,2,4-triazol-3-amine 2,2,2-trifluoroacetate] | < 100 | > 100000 | < 100 |
| Nc1nnc(N2CCC(N3C[C@H](N4CCOCC4)CC[C@@H]3Cc3ccc(Cl)cc3)CC2)[nH]1 [Example 58, 5-((2R,5R)-2-(4-chlorobenzyl)-5-morpholino-[1,4′-bipiperidin]-1′-yl)-4H-1,2,4-triazol-3-amine 2,2,2-trifluoroacetate] | 100 to 1000 | 10000 to 25000 | < 100 |
| Nc1nnc(N2CCC(N3C[C@H](C(=O)N4CCCC4)OC[C@@H]3Cc3ccc(Cl)cc3)CC2)[nH]1 [Example 60, ((2R,5S)-4-(1-(5-amino-4H-1,2,4-triazol-3-yl)piperidin-4-yl)-5-(4-chlorobenzyl)-morpholin-2-yl)(pyrrolidin-1-yl)methanone 2,2,2-trifluoroacetate] | 100 to 1000 | > 100000 | < 100 |
| CC1CN(C(=O)[C@H]2CN(C3CCN(c4nnc(N)[nH]4)CC3)[C@@H](Cc3ccc(Cl)cc3)CO2)C1 [Example 61, ((2R,5S)-4-(1-(5-amino-4H-1,2,4-triazol-3-yl)piperidin-4-yl)-5-(4-chlorobenzyl)-morpholin-2-yl)(3-methylazetidin-1-yl)methanone 2,2,2-trifluoroacetate] | < 100 | > 100000 | < 100 |
| Nc1nnc(N2CCC(N3C[C@H](C(=O)N4CC(F)C4)OC[C@@H]3Cc3ccc(Cl)cc3)CC2)[nH]1 [Example 62, ((2R,5S)-4-(1-(5-amino-4H-1,2,4-triazol-3-yl)piperidin-4-yl)-5-(4-chlorobenzyl)-morpholin-2-yl)(3-fluoroazetidin-1-yl)methanone 2,2,2-trifluoroacetate] | < 100 | > 100000 | < 100 |
| Nc1nnc(N2CCC(N3C[C@H](C(=O)N4CCOCC4)OC[C@@H]3Cc3ccc(Cl)cc3)CC2)[nH]1 [Example 63, ((2R,5S)-4-(1-(5-amino-4H-1,2,4-triazol-3-yl)piperidin-4-yl)-5-(4-chlorobenzyl)-morpholin-2-yl)(morpholino)methanone 2,2,2-trifluoroacetate] | 100 to 1000 | > 100000 | < 100 |
| CC(C)(O)[C@H]1CN(C2CCN(c3nnc(N)[nH]3)CC2)[C@@H](Cc2ccc(Br)cc2)CO1 [Example 64, 2-((2R,5S)-4-(1-(5-amino-4H-1,2,4-triazol-3-yl)piperidin-4-yl)-5-(4-bromobenzyl)-morpholin-2-yl)propan-2-ol 2,2,2-trifluoroacetate] | < 100 | > 100000 | < 100 |
| CC(C)NC(=O)[C@H]1CN(C2CCN(c3nnc(N)[nH]3)CC2)[C@@H](Cc2ccc(Cl)cc2)CO1 [Example 65, (2R,5S)-4-(1-(5-amino-4H-1,2,4-triazol-3-yl)piperidin-4-yl)-5-(4-chlorobenzyl)-N-isopropylmorpholine-2-carboxamide 2,2,2-trifluoroacetate] | 100 to 1000 | > 100000 | < 100 |
| CC(C)(C)NC(=O)[C@H]1CN(C2CCN(c3nnc(N)[nH]3)CC2)[C@@H](Cc2ccc(Cl)cc2)CO1 [Example 66, (2R,5S)-4-(1-(5-amino-4H-1,2,4-triazol-3-yl)piperidin-4-yl)-N-(tert-butyl)-5-(4-chlorobenzyl)morpholine-2-carboxamide 2,2,2-trifluoroacetate] | 100 to 1000 | > 100000 | < 100 |
